Measured values reported in paper PMC7683545, “Human TRPC5 structures reveal interaction of a xanthine-based TRPC1/4/5 inhibitor with a conserved lipid binding site” (Communications Biology, 2020).
Values belong to the molecule of their own block, whether it stands above or below them.

How the values were obtained:
[1] = target: T1, TRPC5 (Homo sapiens, UniProt Q9UL62, V455M/Q573T); experiment: Fura-2 intracellular calcium assay in transfected HEK […] cells; format: cell-based; settings: read-out: AM237 EC50
T1 construct: TRPC5-SYFP2 Q573T
T1 sequence (Q9UL62 1-973 V455M/Q573T): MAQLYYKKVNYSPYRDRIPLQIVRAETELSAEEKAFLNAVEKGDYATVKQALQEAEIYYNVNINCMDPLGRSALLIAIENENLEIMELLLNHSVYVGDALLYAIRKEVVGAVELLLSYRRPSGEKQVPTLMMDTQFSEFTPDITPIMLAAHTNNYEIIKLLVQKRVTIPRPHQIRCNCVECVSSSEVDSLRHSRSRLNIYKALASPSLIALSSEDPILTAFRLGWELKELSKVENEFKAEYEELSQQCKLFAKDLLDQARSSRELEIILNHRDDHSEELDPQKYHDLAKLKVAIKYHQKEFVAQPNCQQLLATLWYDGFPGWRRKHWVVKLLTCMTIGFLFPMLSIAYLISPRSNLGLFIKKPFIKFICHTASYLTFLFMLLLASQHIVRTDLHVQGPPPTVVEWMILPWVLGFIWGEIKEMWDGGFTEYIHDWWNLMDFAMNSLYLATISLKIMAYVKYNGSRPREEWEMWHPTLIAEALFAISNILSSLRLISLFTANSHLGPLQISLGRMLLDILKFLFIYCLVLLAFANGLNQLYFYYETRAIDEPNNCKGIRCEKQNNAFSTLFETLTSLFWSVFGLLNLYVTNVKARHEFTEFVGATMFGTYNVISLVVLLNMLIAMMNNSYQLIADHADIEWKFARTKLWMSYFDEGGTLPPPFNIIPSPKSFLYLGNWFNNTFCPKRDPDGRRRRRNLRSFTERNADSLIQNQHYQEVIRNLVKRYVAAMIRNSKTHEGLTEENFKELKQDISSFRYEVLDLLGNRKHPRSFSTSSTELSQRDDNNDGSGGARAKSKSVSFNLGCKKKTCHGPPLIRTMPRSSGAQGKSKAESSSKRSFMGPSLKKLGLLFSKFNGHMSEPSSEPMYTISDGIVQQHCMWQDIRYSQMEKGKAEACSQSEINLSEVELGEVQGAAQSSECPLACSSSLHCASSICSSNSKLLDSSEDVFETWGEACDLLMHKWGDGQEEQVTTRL

[2] = target: T2, TRPC5 (Homo sapiens, UniProt Q9UL62, V455M); experiment: as above; format: cell-based
T2 construct: TRPC5-SYFP2, wild-type (contains the previously described V455M)
T2 sequence (Q9UL62 1-973 V455M): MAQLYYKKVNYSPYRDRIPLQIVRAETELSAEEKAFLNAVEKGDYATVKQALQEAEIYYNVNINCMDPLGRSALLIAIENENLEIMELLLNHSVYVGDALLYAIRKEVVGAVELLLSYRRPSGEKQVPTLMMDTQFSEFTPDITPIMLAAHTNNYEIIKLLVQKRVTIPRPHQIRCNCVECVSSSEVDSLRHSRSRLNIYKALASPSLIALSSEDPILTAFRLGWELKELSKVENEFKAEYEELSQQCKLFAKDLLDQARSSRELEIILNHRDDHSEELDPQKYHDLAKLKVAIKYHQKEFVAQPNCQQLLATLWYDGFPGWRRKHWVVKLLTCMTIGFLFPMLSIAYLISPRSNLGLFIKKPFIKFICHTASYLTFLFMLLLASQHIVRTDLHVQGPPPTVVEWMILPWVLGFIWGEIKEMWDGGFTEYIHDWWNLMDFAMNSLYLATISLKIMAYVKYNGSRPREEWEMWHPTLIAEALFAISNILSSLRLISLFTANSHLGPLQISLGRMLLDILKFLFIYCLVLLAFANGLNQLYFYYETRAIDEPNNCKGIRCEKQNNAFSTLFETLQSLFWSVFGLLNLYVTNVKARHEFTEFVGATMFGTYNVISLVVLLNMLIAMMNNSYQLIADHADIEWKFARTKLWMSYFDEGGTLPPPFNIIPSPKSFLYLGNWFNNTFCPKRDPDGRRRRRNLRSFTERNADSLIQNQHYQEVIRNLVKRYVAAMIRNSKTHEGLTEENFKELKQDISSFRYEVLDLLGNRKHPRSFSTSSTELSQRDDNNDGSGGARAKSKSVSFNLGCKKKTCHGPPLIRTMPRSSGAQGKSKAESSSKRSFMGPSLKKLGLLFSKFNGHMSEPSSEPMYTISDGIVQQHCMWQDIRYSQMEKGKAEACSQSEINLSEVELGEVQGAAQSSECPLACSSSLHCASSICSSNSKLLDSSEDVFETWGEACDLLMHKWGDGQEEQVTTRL

[3] = target: T3, TRPC5 (human TRPC5:C5 channel) (Homo sapiens, UniProt Q9UL62, V455M); experiment: cryo-EM structure at […] Å; also inhibition of EA-activated channel in HEK […] calcium assay; format: cell-based
T3 construct: MBP-PreS-hTRPC5Δ766–975 (C-terminally truncated), homotetramer
T3 sequence (Q9UL62 1-765 V455M): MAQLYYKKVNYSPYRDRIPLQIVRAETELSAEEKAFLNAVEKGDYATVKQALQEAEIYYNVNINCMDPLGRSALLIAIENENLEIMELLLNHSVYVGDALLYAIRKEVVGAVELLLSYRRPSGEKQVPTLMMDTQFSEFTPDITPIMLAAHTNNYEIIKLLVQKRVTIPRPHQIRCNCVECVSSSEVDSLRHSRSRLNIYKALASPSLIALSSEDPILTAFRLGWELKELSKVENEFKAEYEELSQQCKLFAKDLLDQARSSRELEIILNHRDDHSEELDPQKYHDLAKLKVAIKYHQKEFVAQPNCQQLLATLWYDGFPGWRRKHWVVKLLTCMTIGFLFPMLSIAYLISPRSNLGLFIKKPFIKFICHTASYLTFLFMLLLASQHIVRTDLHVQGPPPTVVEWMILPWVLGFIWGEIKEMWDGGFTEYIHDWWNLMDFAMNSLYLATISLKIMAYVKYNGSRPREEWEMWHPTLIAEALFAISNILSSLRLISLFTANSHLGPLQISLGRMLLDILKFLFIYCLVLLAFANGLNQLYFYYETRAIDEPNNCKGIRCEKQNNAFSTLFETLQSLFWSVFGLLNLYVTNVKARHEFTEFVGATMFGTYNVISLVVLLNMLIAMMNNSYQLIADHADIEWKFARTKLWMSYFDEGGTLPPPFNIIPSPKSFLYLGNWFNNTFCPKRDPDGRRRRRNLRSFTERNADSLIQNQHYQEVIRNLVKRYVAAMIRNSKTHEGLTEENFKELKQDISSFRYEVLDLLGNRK

[4] = target: the molecule itself; experiment: cryo-EM structure; purified TRPC5 in PMAL-C8 at 2 mg/ml with 100 µM Pico145 (also 1 mg/ml with 50 µM Pico145 or 20 µM ZnCl2); C4 symmetry, also refined with C1

Molecule: Cn1c(=O)n(CCCO)c(=O)c2c1nc(Oc1ccc(Cl)c(OC(F)(F)F)c1)n2Cc1ccc(Cl)cc1 [AM237]
EC50 [1]: 110 nM
EC50 [2]: 10.6 nM

IC50 [3]: 4 nM
Molecule: Cn1c(=O)n(CCCO)c(=O)c2c1nc(Oc1cccc(OC(F)(F)F)c1)n2Cc1ccc(Cl)cc1 [Pico145]

B1: MBP-PreS-hTRPC5(Δ766–975) (complex, human, UniProt Q9UL62 1-765, looked up)
chain: MAQLYYKKVNYSPYRDRIPLQIVRAETELSAEEKAFLNAVEKGDYATVKQALQEAEIYYNVNINCMDPLGRSALLIAIENENLEIMELLLNHSVYVGDALLYAIRKEVVGAVELLLSYRRPSGEKQVPTLMMDTQFSEFTPDITPIMLAAHTNNYEIIKLLVQKRVTIPRPHQIRCNCVECVSSSEVDSLRHSRSRLNIYKALASPSLIALSSEDPILTAFRLGWELKELSKVENEFKAEYEELSQQCKLFAKDLLDQARSSRELEIILNHRDDHSEELDPQKYHDLAKLKVAIKYHQKEFVAQPNCQQLLATLWYDGFPGWRRKHWVVKLLTCMTIGFLFPMLSIAYLISPRSNLGLFIKKPFIKFICHTASYLTFLFMLLLASQHIVRTDLHVQGPPPTVVEWMILPWVLGFIWGEIKEMWDGGFTEYIHDWWNLMDFAMNSLYLATISLKIMAYVKYNGSRPREEWEMWHPTLIAEALFAISNILSSLRLISLFTANSHLGPLQISLGRMLLDILKFLFIYCLVLLAFANGLNQLYFYYETRAIDEPNNCKGIRCEKQNNAFSTLFETLQSLFWSVFGLLNLYVTNVKARHEFTEFVGATMFGTYNVISLVVLLNMLIAMMNNSYQLIADHADIEWKFARTKLWMSYFDEGGTLPPPFNIIPSPKSFLYLGNWFNNTFCPKRDPDGRRRRRNLRSFTERNADSLIQNQHYQEVIRNLVKRYVAAMIRNSKTHEGLTEENFKELKQDISSFRYEVLDLLGNRK
notes: Transient Receptor Potential Canonical 5 (TRPC5), human, C-terminally truncated (Δ766–975), carries V455M from the PCR template TRPC5-SYFP2; A PreScission protease site (PreS) lies between MBP and TRPC5; MBP, PreS and the first 16 residues of TRPC5 were not resolved in the map; Homotetrameric channel in amphipol PMAL-C8; also called human TRPC5; TRPC5:C5 channel; not shown: MBP, N-terminal, kept
stoichiometry N [4]: 4
